According to paper PMC7260283, “The Amino Terminus of LeuT Changes Conformation in an Environment Sensitive Manner” (Neurochemical Research, 2019):

Biological target: T1, wild type LeuT (Aquifex aeolicus, UniProt O67854)
T1 construct: gene snf; full-length, His-tagged, expressed in E. coli C41(DE3), purified in DDM; plasmid from Eric Gouaux
Experiment: scintillation proximity assay, competition of cold leucine with [3H]leucine, YSi beads
Assay type: binding
Conditions: purified His-tagged protein; competitive with [3H]leucine

- KI: 15.5 ± 2.4 nM
SMILES: CC(C)C[C@H](N)C(=O)O [leucine]
